Broadly, the IC50 is the concentration at which inhibition is half-maximal. High values mean lower potency, low ones higher potency. As usually defined, the inhibition is the change of the read-out against control, counted positive when it falls.

The structures appear in SMILES notation.

Experimental findings from US8835646B2, “Organic compounds” (Novartis AG, priority 2005, dated 2014) are described below.

One experiment has as its target T1, aldosterone synthase (Homo sapiens, UniProt P19099).
T1 construct: host or cells: NCI-H295R
T1 sequence (P19099 25-503): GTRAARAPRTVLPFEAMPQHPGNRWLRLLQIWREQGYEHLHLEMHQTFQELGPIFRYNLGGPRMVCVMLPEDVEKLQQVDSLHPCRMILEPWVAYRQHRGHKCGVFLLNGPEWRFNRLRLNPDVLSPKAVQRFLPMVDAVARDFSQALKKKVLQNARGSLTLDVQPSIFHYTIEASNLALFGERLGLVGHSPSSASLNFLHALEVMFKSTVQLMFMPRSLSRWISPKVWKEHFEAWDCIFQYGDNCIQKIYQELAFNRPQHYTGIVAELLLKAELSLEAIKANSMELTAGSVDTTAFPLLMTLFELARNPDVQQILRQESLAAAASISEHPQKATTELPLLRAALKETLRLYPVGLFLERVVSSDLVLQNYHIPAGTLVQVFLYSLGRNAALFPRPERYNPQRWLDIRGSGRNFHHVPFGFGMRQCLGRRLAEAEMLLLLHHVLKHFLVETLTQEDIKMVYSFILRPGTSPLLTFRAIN
Description: cellular aldosterone production in NCI-H295R cells stimulated with Ang II (RIA/SPA). It is filed as cell-based. The settings on record: human adrenocortical carcinoma NCI-H295R cells, 1 μM Ang II, 24 hr. From the text: (§1) Human adrenocortical carcinoma NCl-H295R cell line is obtained from American Type Culture Collection (Manassas, Va.). Insulin/transferrin/selenium (ITS)-A supplement (100×), DMEM/F-12, antibiotic/antimycotic (100×), and fetal calf serum (FCS) are purchased from Gibco (Grand Island, N.Y.). Anti-mouse PVT scintillation proximity assay (SPA) beads and NBS 96-well plates are obtained from Amersham (Piscataway, N.J.) and Corning (Acton, Mass.), respectively. Solid black 96-well flat bottom plates are purchased from Costar (Corning, N.Y.). Aldosterone and angiotensin (Ang II) are purchased from Sigma (St. Louis, Mo.). D-[1,2,6,7-^3H(N)]aldosterone was acquired from PerkinElmer (Boston, Mass.). Nu-serum was a product of BD Biosciences (Franklin Lakes, N.J.). The NADPH regenerating system, dibenzylfluorescein (DBF), and human aromatase Supersomes® are obtained from Gentest (Woburn, Mass.).
For in vitro measurement of aldosterone activity, human adrenocortical carcinoma NCI-H295R cells are seeded in NBS 96-well plates at a density of 25,000 cells/well in 100 μl of a growth medium containing DMEM/F12 supplemented with 10% FCS, 2.5% Nu-serum, 1 μg ITS/ml, and 1× antibiotic/antimycotic. The medium is changed after culturing for 3 days at 37° C. under an atmosphere of 5% CO2/95% air. On the following day, cells are rinsed with 100 μl of DMEM/F12 and incubated with 100 μl of treatment medium containing 1 μM Ang II and a compound at different concentrations in quadruplicate wells at 37° C. for 24 hr. At the end of incubation, 50 μl of medium is withdrawn from each well for measurement of aldosterone production by an RIA using mouse anti-aldosterone monoclonal antibodies.
Measurement of aldosterone activity can also be performed using a 96-well plate format. Each test sample is incubated with 0.02 μCi of D-[1,2,6,7-^3H(N)]aldosterone and 0.3 μg of anti-aldosterone antibody in phosphate-buffered saline (PBS) containing 0.1% Triton X-100, 0.1% bovine serum albumin, and 12% glycerol in a total volume of 200 μl at room temperature for 1 hr. Anti-mouse PVT SPA beads (50 μl) are then added to each well and incubated overnight at room temperature prior to counting in a Microbeta plate counter. The amount of aldosterone in each sample is calculated by comparing with a standard curve generated using known quantities of the hormone.
(§2) Full concentration-response curves of the test compound are performed at least 3 times. The IC50 values are derived using a non-linear least squares curve-fitting program from Microsoft XLfit.

The target in another experiment is T2, human aromatase (Homo sapiens, UniProt P11511).
T2 construct: purchased Gentest (Woburn, Mass.)
T2 sequence (P11511 1-503): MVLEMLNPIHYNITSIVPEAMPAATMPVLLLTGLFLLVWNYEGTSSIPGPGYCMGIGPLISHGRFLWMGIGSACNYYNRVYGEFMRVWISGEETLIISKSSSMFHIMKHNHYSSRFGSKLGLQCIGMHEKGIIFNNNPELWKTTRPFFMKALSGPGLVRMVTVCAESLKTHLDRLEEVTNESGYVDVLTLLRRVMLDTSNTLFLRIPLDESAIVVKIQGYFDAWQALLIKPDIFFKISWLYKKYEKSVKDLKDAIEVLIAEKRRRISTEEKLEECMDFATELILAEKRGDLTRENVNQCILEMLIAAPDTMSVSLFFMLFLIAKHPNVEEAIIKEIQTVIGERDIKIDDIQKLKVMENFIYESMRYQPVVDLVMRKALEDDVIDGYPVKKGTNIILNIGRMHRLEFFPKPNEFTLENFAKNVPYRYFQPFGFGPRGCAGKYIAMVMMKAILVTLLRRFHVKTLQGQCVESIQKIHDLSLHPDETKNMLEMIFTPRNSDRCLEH
The experiment is described as follows: human aromatase assay (Supersomes, DBF substrate, fluorescence). It is filed as biochemical. To be noted: 10000 nM.
Text: as §1
To measure aromatase activity, the human aromatase assay is performed in 96-well flat bottom plates according to a published protocol (Stresser et al, 2000) with minor modifications. Briefly, 10 μl of an NADPH regenerating system containing 2.6 mM NADP^+, 6.6 mM glucose 6-phosphate, 6.6 mM MgCl2, and 0.8 U/ml glucose-6-phosphate dehydrogenase in 50 mM potassium phosphate, pH 7.4, is pre-incubated with the test compound at a desired concentration at 30° C. for 10 min in a total volume of 100 μl. Afterwards, 4 pmol of human aromatase, 20 μg of control microsomal protein, and 4 μM DBF in 100 μl of 50 mM potassium phosphate, pH 7.4, is added to each well and incubated at 30° C. for 90 min. The reaction is terminated by the addition of 75 μl of 2 N NaOH to each well. After 2 hr, the product, fluorescein, is measured by a fluorimeter using excitation and emission wavelengths of 485 and 538 nm, respectively.
as §2

On to `C=C1CC2(CCCCc3cncn32)c2ccc(C#N)cc21` (stereo not drawn) [3′-Methylene-2′,3′,6,7,8,9-hexahydrospiro[imidazo[1,5-a]azepine-5,1′-indene]-5′-carbonitrile], for which, at aldosterone synthase, the midpoint of inhibition, the IC50, lay at 11 nM. Also, at human aromatase, the inhibition at 10 µM came out at 100%.

As to `C=CCC1(c2ccc(C#N)cc2Br)CCCCc2cncn21` (stereo not drawn) [4-(5-Allyl-6,7,8,9-tetrahydro-5H-imidazo[1,5-a]azepin-5-yl)-3-bromobenzonitrile], half-maximal inhibition against aldosterone synthase (IC50) required 32 nM. Further, at human aromatase, testing at 10 µM gave an inhibition of 97%.

The compound `COc1cc(C2CCc3cncn32)ccc1C#N` (stereo not drawn) [4-(6,7-Dihydro-5H-pyrrolo[1,2-c]imidazol-5-yl)-2-methoxybenzonitrile] registered an IC50 at aldosterone synthase of 5 nM. The compound further had an inhibition at 10 µM on human aromatase of 97%.

As for `Cc1cc(C2CCc3cncn32)ccc1C#N` (stereo not drawn) [4-(6,7-Dihydro-5H-pyrrolo[1,2-c]imidazol-5-yl)-2-methylbenzonitrile], the half-inhibitory concentration (IC50) against aldosterone synthase worked out at 3 nM. At human aromatase, this compound gave an inhibition at 10 µM of 95%.

The compound `C=Cc1cc(C2CCc3cncn32)ccc1C#N` (stereo not drawn) [4-(6,7-Dihydro-5H-pyrrolo[1,2-c]imidazol-5-yl)-2-vinylbenzonitrile] registered an IC50 against aldosterone synthase of 8 nM. Also, on human aromatase, at 10 µM the inhibition was 100%.

Take `COc1cc(C#N)ccc1C1CCc2cncn21` (stereo not drawn) [4-(6,7-Dihydro-5H-pyrrolo[1,2-c]imidazol-5-yl)-3-methoxybenzonitrile]: half-maximal inhibition at aldosterone synthase (IC50) was put at 18 nM. In addition, the inhibition at 10 µM against human aromatase came out at 100%.

As to `C=Cc1cc(C#N)ccc1C1CCc2cncn21` (stereo not drawn) [4-(6,7-Dihydro-5H-pyrrolo[1,2-c]imidazol-5-yl)-3-vinylbenzonitrile], half-maximal inhibition against aldosterone synthase (IC50) required 31 nM. The compound also gave an inhibition at 10 µM against human aromatase of 95%.

Compound `CC1CCCC(c2ccc(C#N)cc2-c2ccc(F)cc2)n2cncc21` (stereo not drawn) [4′-Fluoro-6-(9-methyl-6,7,8,9-tetrahydro-5H-imidazo[1,5-a]azepin-5-yl)biphenyl-3-carbonitrile] gave an IC50 against aldosterone synthase of 2 nM. The same compound returned an inhibition at 10 µM at human aromatase of 91%.

Regarding `Fc1ccc(C2CCCCc3cncn32)c(Br)c1` (stereo not drawn) [5-(2-Bromo-4-fluorophenyl)-6,7,8,9-tetrahydro-5H-imidazo[1,5-a]azepine], the 50% inhibitory concentration (IC50) at aldosterone synthase came to 65 nM. On human aromatase, 10 µM produced 92% inhibition.

On aldosterone synthase, `COC(=O)C1(c2ccc(C#N)cc2Cl)CCc2cncn21` (stereo not drawn) [5-(2-Chloro-4-cyanophenyl)-6,7-dihydro-5H-pyrrolo[1,2-c]imidazole-5-carboxylic acid methyl ester] gave an IC50 of 45 nM. Further, 10 µM produced 96% inhibition against human aromatase.

Compound `COc1ccc(C2CCc3cncn32)cc1F` (stereo not drawn) [5-(3-fluoro-4-methoxyphenyl)-6,7-dihydro-5H-pyrrolo[1,2-c]imidazole] had a half-maximal inhibitory concentration (IC50) at aldosterone synthase of 159 nM. The inhibition at 10 µM against human aromatase turned out to be 100%.

In the case of `COC(=O)C1(c2cc(OC)c(C#N)cc2OC)CCc2cncn21` (stereo not drawn) [5-(4-Cyano-2,5-dimethoxyphenyl)-6,7-dihydro-5H-pyrrolo[1,2-c]imidazole-5-carboxylic acid methyl ester], the half-maximal inhibitory concentration (IC50) against aldosterone synthase came out at 113 nM. On human aromatase, this compound returned an inhibition at 10 µM of 98%.

`COc1cc(C#N)ccc1C1(C(=O)OCCOC(C)C)CCc2cncn21` (stereo not drawn) [5-(4-Cyano-2-methoxyphenyl)-6,7-dihydro-5H-pyrrolo[1,2-c]imidazole-5-carboxylic acid 2-isopropoxyethyl ester]: inhibition against aldosterone synthase was half-maximal at 5 nM (IC50). Also, the inhibition at 10 µM on human aromatase turned out to be 96%.

At aldosterone synthase, `COc1cc(C#N)ccc1C1(C(=O)N(C)Cc2ccc(F)cc2)CCc2cncn21` (stereo not drawn) [5-(4-Cyano-2-methoxyphenyl)-6,7-dihydro-5H-pyrrolo[1,2-c]imidazole-5-carboxylic acid (4-fluorobenzyl)methylamide] registered an IC50 of 57 nM. The compound also displayed an inhibition at 10 µM against human aromatase of 85%.

`CCCCOC(=O)C1(c2ccc(C#N)cc2OC)CCc2cncn21` (stereo not drawn) [5-(4-Cyano-2-methoxyphenyl)-6,7-dihydro-5H-pyrrolo[1,2-c]imidazole-5-carboxylic acid butyl ester] returned an IC50 against aldosterone synthase of 6 nM. At human aromatase, this compound returned an inhibition at 10 µM of 100%.
